Reference: patent US11679107B2 (Eisai R&D Management Co., Ltd., priority 2018, dated 2023)
Where two headings read alike, the source gives them in different places.

Assays:
SF3b complexes = target: T1, SF3b complexes (Homo sapiens, UniProt O75533+Q7RTV0); assay: Scintillation proximity assay (SPA) with [3H]-labelled pladienolide probe; type: binding; settings: SF3B1 (WT); geometric mean; read-out: SPA-ATS GMean IC50 (nM) SF3B1 (WT)
T1 construct: endogenous in cells; host or cells: Nuclear extracts; A HeLa S3 extract preparation is described for the in vitro splicing assay
Method in brief: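 SF3b complexes captured from nuclear extracts on anti-SF3B1 antibody SPA beads; test compounds pre-incubated 30 min before 2.5 nM [3H]-pladienolide probe added, then 30 min incubation. Bound probe read by scintillation; values from non-linear regression of concentration–response curves.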

[1] = system: Ad2 variant pre-mRNAs spliced in HeLa S3 nuclear extracts; assay: In vitro splicing assay (IVS), RT-qPCR of spliced product; type: biochemical; settings: for IC50: geometric mean; for Ratio Ad2.1/2.2: ratio of IVS IC50 Ad2.1 to Ad2.2
Method in brief: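 Ad2 variant pre-mRNA (2 ng) with FTZΔi control RNA in HeLa S3 nuclear extract (8 μg) was pre-incubated with compound or DMSO for 15 min at 30 °C. Splicing ran 90 min at 30 °C after adding 0.5 mM ATP, creatine phosphate and MgCl2. Spliced product was quantified by TaqMan RT-qPCR, normalized to DMSO, and curve-fitted.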

[2] = system: NCI-H1568 cells (high MCL1); assay: Cell proliferation and viability, CellTiter-Glo, 72 hours; type: cell-based; settings: NCIH1568.1; for CTGlo-ATS Mean MinResponse % 72 h NCIH1568.1: -100% = cidal, 0% = static, 100% = uninhibited growth; for GI50: geometric mean
Method in brief: (§1)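 Cells grown in RPMI-1640 with 10% FBS (Panc line with added insulin and FBS to 15%) were exposed to an 11-point half-log dilution series, typically 10 μM-100 pM, at 0.1% final DMSO. After incubation at 37° C, 5% CO2, ATP content was measured by luminescence and normalized to a time-zero plate and DMSO wells.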

[3] = system: Panc 05.04 cells (SF3b K700E mutant); assay: as above; type: cell-based; settings: PANC0504.1; for CTGlo-ATS Mean MinResponse % 72 h PANC0504.1: -100% = cidal, 0% = static, 100% = uninhibited growth; for GI50: geometric mean
Method in brief: as §1

[4] = in vivo; cited from earlier work
[5] = Ad2.1 pre-mRNA substrate, read-out: qPCR-IVS-ATS GMean IC50 (nM) Ad2.1
[6] = Ad2.2 pre-mRNA substrate, read-out: qPCR-IVS-ATS GMean IC50 (nM) Ad2.2
[7] = NCI-H1568, 72 h, read-out: CTGlo-ATS GMean GI50 (nM) 72 h NCIH1568.1, 72 h
[8] = Panc 05.04, 72 h, read-out: CTGlo-ATS GMean GI50 (nM) 72 h PANC0504.1, 72 h

**Q.** Which results are given for `C/C(=C\c1cc(F)cc(N2CCOCC2)c1)[C@H]1OC(=O)C[C@H](O)CC[C@H](C)[C@@H](OC(=O)N2CCC(N3CCCCC3)CC2)/C=C/[C@@H]1C` [Compound 262, [(2S,3S,4E,6R,7S,10R)-2-[(E)-1-(3-fluoro-5-morpholin-4-ylphenyl)prop-1-en-2-yl]-10-hydroxy-3,7-dimethyl-12-oxo-1-oxacyclododec-4-en-6-yl] 4-piperidin-1-ylpiperidine-1-carboxylate]?
**A.** IC50 (SF3b complexes): 5.66 nM; IC50 [1, 5]: 4100 nM; IC50 [1, 6]: 51.6 nM; Ratio Ad2.1/2.2 [1]: 79.467; CTGlo-ATS Mean MinResponse % 72 h NCIH1568.1 ([2]; 72 h): −65.862%; GI50 [2, 7]: 41.7 nM; CTGlo-ATS Mean MinResponse % 72 h PANC0504.1 ([3]; 72 h): −91.709%; GI50 [3, 8]: 29.3 nM

**Q.** With `C/C(=C\c1cccc(N2CCN(CCO)CC2)c1)[C@H]1OC(=O)C[C@H](O)CC[C@H](C)[C@@H](OC(=O)N2CCC(N3CCCCC3)CC2)/C=C/[C@@H]1C` [Compound 263, [(2S,3S,4E,6R,7S,10R)-10-hydroxy-2-[(E)-1-[3-[4-(2-hydroxyethyl)piperazin-1-yl]phenyl]prop-1-en-2-yl]-3,7-dimethyl-12-oxo-1-oxacyclododec-4-en-6-yl] 4-piperidin-1-ylpiperidine-1-carboxylate] as the molecule, how does the IC50 (SF3b complexes) read?
**A.** 37.7 nM

**Q.** And the IC50 [1, 5]?
**A.** 93.6 nM

**Q.** What about the IC50 [1, 6] of the same molecule?
**A.** 25.5 nM

**Q.** And the “Ratio Ad2.1/2.2” value [1]?
**A.** 3.677

**Q.** What about the “CTGlo-ATS Mean MinResponse % 72 h NCIH1568.1” value ([2]; 72 h) of the same molecule?
**A.** −67.601%

**Q.** What about the GI50 ([2]; NCI-H1568, read-out: CTGlo-ATS GMean GI50 (nM) 72 h NCIH1568.1, 72 h) of the same molecule?
**A.** 102 nM

**Q.** What about the “CTGlo-ATS Mean MinResponse % 72 h PANC0504.1” value ([3]; 72 h) of the same molecule?
**A.** −88.783%

**Q.** What about the GI50 ([3]; Panc 05.04, read-out: CTGlo-ATS GMean GI50 (nM) 72 h PANC0504.1, 72 h) of the same molecule?
**A.** 64.5 nM

**Q.** Which IC50 (SF3b complexes) does the source give for `C/C(=C\c1cccc(N(C)C)c1)[C@H]1OC(=O)C[C@H](O)CC[C@H](C)[C@@H](OC(=O)N2CCN(C)CC2)/C=C/[C@@H]1C` [Compound 265] here?
**A.** 5.3 nM

**Q.** And the IC50 [1, 5]?
**A.** > 25000 nM

**Q.** And the IC50 [1, 6]?
**A.** 71.6 nM

**Q.** What about the “Ratio Ad2.1/2.2” value [1] of the same molecule?
**A.** 349.0

**Q.** What about the “CTGlo-ATS Mean MinResponse % 72 h NCIH1568.1” value ([2]; 72 h) of the same molecule?
**A.** −9.0%

**Q.** And the GI50 [2, 7]?
**A.** 47.5 nM

**Q.** What about the “CTGlo-ATS Mean MinResponse % 72 h PANC0504.1” value ([3]; 72 h) of the same molecule?
**A.** 25.1%

**Q.** And the GI50 [3, 8]?
**A.** 36.7 nM

**Q.** Which plasma half-life [4] does the source give for tremelimumab here?
**A.** approximately 22 days
